Measurements reported in US6440899B1, “Cyclohexenonedioxothiochromanoyl derivatives” (BASF Aktiengesellschaft, priority 1998, dated 2002).

Columns and labels:
Experiment in all cases: greenhouse post-emergence herbicidal test
Type in all cases: in vivo
Settings in all cases: applied post-emergence, rates of application of 0.5 and 0.25 kg/ha, respectively
[1] = test system: Chenopodium album
Description: (§1) The seeds of the test plants were sown separately for each species. For the post-emergence treatment, the test plants were first grown to a height of 3 to 15 cm, depending on the plant habit, and only then treated with the active compounds which had been suspended or emulsified in water. For this purpose, the test plants were either sown directly and grown in the same containers, or they were first grown separately as seedlings and transplanted into the test containers a few days prior to treatment. The rate of application for the post-emergence treatment was 0.5 or 0.25 kg/ha of a.s. (active substance). Depending on the species, the plants were kept at 10-25° C. or 20-35° C. The test period extended over 2 to 4 weeks. During this time, the plants were tended, and their response to the individual treatments was evaluated. Evaluation was carried out using a scale from 0 to 100. 100 means no emergence of the plants, or complete destruction of at least the aerial parts, and 0 means no damage, or normal course of growth. The plants used in the greenhouse experiments belonged to the following species: [table]

[2] = test system: Setaria faberi
Description: as §1

[3] = test system: Echinochloa crus-galli
Description: as §1

[4] = test system: Solanum nigrum
Description: as §1

[5] = test system: Galium aparine
Description: as §1

[6] = test system: Setaria viridis
Description: as §1

[7] = test system: Sinapis alba
Description: as §1

Measured: herbicidal activity

Cc1c(C(=O)C2=C(Cl)C(C)(C)C(=O)C(C)(C)C2=O)ccc2c1S(=O)(=O)CCS2(=O)=O [Compound 4.1, 1-Chloro-2-[(8-methyl-2,3-dihydro-1,1,4,4-tetraoxobenz[1,4]dithiyn-7-yl)carbonyl]-4,4,6,6-tetramethyl-1-cyclohexene-3,5-dione]
very good activity: all assays above
